According to article PMC11882969 (Nature Communications, 2025):
Where “and” joins values, the source holds several entries; their conditions need not be identical. Identical values can stand only once.

How the values were obtained:
Assay type in all cases: cell-based
hCB1 [1] = target: T1, hCB1 (Homo sapiens, UniProt P21554); assay: Tango β-arrestin-2 recruitment, HTLA cells, CB1R; set-up: expressed in transfected cells; host or cells: HTLA cells (gift of R. Axel), transient transfection
hCB2 = hCB2 (Homo sapiens, UniProt P34972); assay: TRUPATH BRET2 GoA dissociation, HEK293T; set-up: expressed in transfected cells; host or cells: HEK293T cells (ATCC: CRL-3216), transient co-transfection; conditions: Log[drug], replicate columns
hCB2, sequence (P34972 whole entry): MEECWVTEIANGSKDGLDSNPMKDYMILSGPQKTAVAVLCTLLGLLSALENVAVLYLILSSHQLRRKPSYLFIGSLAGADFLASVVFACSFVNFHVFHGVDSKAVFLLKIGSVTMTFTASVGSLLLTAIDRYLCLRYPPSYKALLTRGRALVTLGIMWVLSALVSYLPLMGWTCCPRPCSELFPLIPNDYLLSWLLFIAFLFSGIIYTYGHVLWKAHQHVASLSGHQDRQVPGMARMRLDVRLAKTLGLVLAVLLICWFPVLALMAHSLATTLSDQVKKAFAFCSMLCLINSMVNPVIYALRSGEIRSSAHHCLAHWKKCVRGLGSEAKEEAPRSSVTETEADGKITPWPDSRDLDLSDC

hCB1 [2] = target: T1, hCB1; assay: bioSensAll ebBRET signaling profiling, hCB1; set-up: host or cells: HEK293SL cells, transient PEI transfection; conditions: for Gi1 hCB1 response: Gi1 biosensor

T1 sequence (P21554 whole entry): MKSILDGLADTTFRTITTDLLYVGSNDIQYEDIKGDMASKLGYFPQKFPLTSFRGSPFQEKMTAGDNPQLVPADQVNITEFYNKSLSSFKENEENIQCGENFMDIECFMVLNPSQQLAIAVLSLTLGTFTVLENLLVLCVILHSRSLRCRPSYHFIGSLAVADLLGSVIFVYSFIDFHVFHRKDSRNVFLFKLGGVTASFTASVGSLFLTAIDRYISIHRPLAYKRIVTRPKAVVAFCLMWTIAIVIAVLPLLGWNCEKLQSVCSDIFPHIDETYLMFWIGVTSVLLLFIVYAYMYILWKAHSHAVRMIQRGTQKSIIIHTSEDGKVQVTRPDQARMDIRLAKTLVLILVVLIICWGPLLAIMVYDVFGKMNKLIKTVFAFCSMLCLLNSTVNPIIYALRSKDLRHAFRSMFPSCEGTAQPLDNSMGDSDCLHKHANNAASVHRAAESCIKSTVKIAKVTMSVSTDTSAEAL

COC(=O)[C@@H]1[C@@H]2CCC[C@@H]2CN1C(=O)c1cc(C)n(-c2cccc(Cl)c2)n1 (racemic) [‘10010]
response, replicate values of concentration-response curve (FigS7f) (hCB1 [1]; Log[drug], M = -4.52): 24.852 and -9.474 and 31.57 and 49.261 and 34.9163 and 58.51 and 43.3772 and 13.5605 and 34.2635 and 143.166 and 149.946 and 121.258 | response, replicate values of concentration-response curve (FigS7f) (hCB1 [1]; Log[drug], M = -5): -6.393 and 4.812 and 50.5074 and 20.7309 and 18.1964 and 30.378 and 30.3734 and 43.3772 and 17.784 and 37.7997 and 110.741 and 29.9442 | response at Log[drug], M -5 (FigS4e) (hCB1 [1]; Log[drug], M = -5, individual replicates): 7.472 and 8.685 and 7.884 and 5.743 and 2.852 and 6.706 and 6.083 and 7.677 and 9.73 and 9.693 and 11.3624 and 13.6983 | response, replicate values of concentration-response curve (FigS7f) (hCB1 [1]; Log[drug], M = -5.52): -20.324 and 14.103 and 31.5067 and 7.169 and 19.8684 and 6.1872 and -9.345 and -6.435 and -28.1989 and 72.0832 and 46.8763 and 64.173 | response at Log[drug], M -5.52 (FigS4e) (hCB1 [1]; Log[drug], M = -5.52, individual replicates): 17.6293 and 13.3704 and 15.7552 and 17.3388 and 7.111 and 7.22 and 6.777 and 6.548 and 14.8053 and 14.1767 and 12.0847 and 15.6871 | response, replicate values of concentration-response curve (FigS7f) (hCB1 [1]; Log[drug], M = -6): -1.057 and 19.693 and 21.3155 and 18.7272 and -21.0026 and 10.5662 and 17.0767 and 0.7084 and 10.105 and 46.129 and 8.583 and -11.9397 | response at Log[drug], M -6 (FigS4e) (hCB1 [1]; Log[drug], M = -6, individual replicates): 17.4137 and 13.2205 and 12.7098 and 18.5288 and 2.8 and 2.042 and 0.7471 and 2.0116 and 5.809 and 8.098 and 10.8652 and 9.299 | response, replicate values of concentration-response curve (FigS7f) (hCB1 [1]; Log[drug], M = -6.52): 16.7142 and -12.7567 and -9.207 and 42.4801 and 2.591 and -9.299 and -1.706 and 6.518 and 3.588 and 25.7157 and 29.853 and 20.7035 | response at Log[drug], M -6.52 (FigS4e) (hCB1 [1]; Log[drug], M = -6.52, individual replicates): 5.804 and 6.685 and 5.518 and 6.338 and -2.975 and -1.665 and -2.183 and -3.091 and 1.981 and 0.8276 and 5.1991 and 1.175 | response, replicate values of concentration-response curve (FigS7f) (hCB1 [1]; Log[drug], M = -7): 11.1876 and 2.403 and 33.2939 and -14.3677 and -5.119 and -14.8322 and -4.192 and -26.8955 and -17.9232 and -30.0748 and 5.375 and 20.4665 | response at Log[drug], M -7 (FigS4e) (hCB1 [1]; Log[drug], M = -7, individual replicates): 8.629 and 6.746 and 5.86 and 10.4703 and -2.0219 and -2.877 and 1.224 and -2.078 and 2.76 and 0.06777 and 1.494 and 1.231 | response, replicate values of concentration-response curve (FigS7f) (hCB1 [1]; Log[drug], M = -7.52): -4.594 and -7.623 and -10.5004 and 2.14 and -6.485 and 4.329 and -8.365 and -9.244 and -13.1441 and 57.083 and -23.4769 and -26.8306 | response at Log[drug], M -7.52 (FigS4e) (hCB1 [1]; Log[drug], M = -7.52, individual replicates): 7.402 and 10.1376 and 9.341 and 5.865 and -1.189 and -1.594 and -1.932 and -1.59 and 2.357 and 3.37 and 0.3773 and 1.259 | response at Log[drug], M -8 (FigS4e) (hCB1 [1]; Log[drug], M = -8, individual replicates): 5.148 and 6.741 and 11.0794 and 7.462 and -3.208 and -1.519 and -1.219 and -1.073 and 3.632 and 3.698 and 2.085 and 1.362 | response at Log[drug], M -8.52 (FigS4e) (hCB1 [1]; Log[drug], M = -8.52, individual replicates): 6.619 and 9.146 and 5.084 and 9.668 and -0.1198 and -1.382 and -2.75 and -0.9228 and 3.28 and -0.4583 and 7.234 and 5.093 | response at Log[drug], M -9 (FigS4e) (hCB1 [1]; Log[drug], M = -9, individual replicates): 7.852 and 7.417 and 8.056 and 9.08 and -2.328 and -1.287 and -1.685 and -1.328 and 7.254 and 4.304 and 5.943 and 1.774 | response, replicate values of concentration-response curve (FigS7f) (hCB1 [1]; Log[drug], M = -9.52): 6.738 and -6.178 and -20.755 and -11.5014 | response at Log[drug], M -9.52 (FigS4e) (hCB1 [1]; Log[drug], M = -9.52, individual replicates): 9.847 and 11.0284 and 11.6628 and 8.737 and -1.263 and 0.9084 and -0.5418 and -0.1936 and 4.704 and 2.799 and 4.5399 and 1.57 | response, replicate values of concentration-response curve (FigS7f) (hCB1 [1]; Log[drug], M = -10): 28.4645 and -14.1129 and -6.736 and 44.2981 and 21.9252 and 39.0432 and 53.2891 and 13.6717 and 41.3867 and -34.1393 and -0.001553 and -21.0711 | response at Log[drug], M -10 (FigS4e) (hCB1 [1]; Log[drug], M = -10, individual replicates): 10.788 and 9.1102 and 5.959 and 9.12 and -1.758 and -1.431 and -1.611 and -0.8081 and 3.28 and 4.704 and 4.745 and 3.311 | response at Log[drug], M -10.52 (FigS4e) (hCB1 [1]; Log[drug], M = -10.52, individual replicates): 6.358 and 9.064 and 8.9107 and 9.172 and 1.265 and 0.1792 and -0.6688 and 1.04 and 3.157 and 2.819 and 2.153 and 4.1507 | response at Log[drug], M -11 (FigS4e) (hCB1 [1]; Log[drug], M = -11, individual replicates): 2.256 and 6.798 and 9.796 and 5.744 and -1.353 and -1.763 and 1.556 and -0.804 and 2.6758 and 2.932 and 3.905 and 1.57 | response at Log[drug], M -11.52 (FigS4e) (hCB1 [1]; Log[drug], M = -11.52, individual replicates): 2.281 and 3.903 and 3.253 and 1.1509 and 1.314 and 0.9699 and 1.212 and 0.552 and 3.905 and 2.9421 and 2.881 and 4.816 | response at Log[drug], M -12 (FigS4e) (hCB1 [1]; Log[drug], M = -12, individual replicates): 1.069 and -1.289 and -0.4859 and 0.7059 and -0.1854 and 0.7118 and -1.111 and 0.5848 and 1.078 and -0.868 and 0.4635 and -0.6734 | EC50 (hCB1 [1]; hCB1, read-out: Tango ß-arrestin recruitment EC50): > 10 µM | functional response, concentration-response point (FigS7e, normalized) (hCB2; M = -5): 13.7314 and 19.7654 and 16.2539 and 16.3582 and 15.5266 and 14.7181 and 16.9744 and 17.1956 and 17.3437 and 20.7447 and 17.5139 and 16.5546 | functional response, concentration-response point (FigS7e, normalized) (hCB2; M = -5.52): 20.9042 and 19.2165 and 18.0732 and 18.0369 and 19.6455 and 19.8563 and 17.8521 and 14.5073 and 16.3411 and 19.903 and 17.2602 and 16.9755 | functional response, concentration-response point (FigS7e, normalized) (hCB2; M = -6): 10.7507 and 14.9427 and 13.7359 and 16.0951 and 12.4583 and 11.3422 and 12.1059 and 9.687 and 11.8107 and 11.4703 and 9.703 and 11.3929 | functional response, concentration-response point (FigS7e, normalized) (hCB2; M = -6.52): 4.563 and 6.7947 and 8.079 and 4.985 and 4.497 and 4.0725 and 5.772 and 5.524 and 4.879 and 5.1763 and 4.984 and 5.043 | functional response, concentration-response point (FigS7e, normalized) (hCB2; M = -7): 0.9969 and 1.487 and 2.14 and 1.042 and 1.585 and 1.996 and 1.046 and 1.153 and 1.5 and 1.42 and 1.036 and 1.049 | functional response, concentration-response point (FigS7e, normalized) (hCB2; M = -7.52): 0.4797 and -0.06465 and 1.02 and 1.242 and 0.9491 and 0.7245 and 0.6969 and 0.2961 and 0.374 and 0.3276 and 0.4451 and 0.1667 | functional response, concentration-response point (FigS7e, normalized) (hCB2; M = -8): 0.02154 and 0.144 and -0.228 and -0.5682 and 0.189 and -0.07359 and -0.0114 and 0.652 and 0.7051 and 0.1667 and -0.0685 and 0.08312 | functional response, concentration-response point (FigS7e, normalized) (hCB2; M = -8.52): -0.1696 and -0.1994 and 0.2365 and -0.2192 and 0.07356 and 0.6319 and 1.0091 and 0.1075 and 0.1334 and 0.5456 and 0.1807 and -0.04223 | functional response, concentration-response point (FigS7e, normalized) (hCB2; M = -12): -0.3529 and 0.3603 and 0.09782 and -0.1053 | Gi1 hCB1 response (hCB1 [2]; Log [Compound] (M) -4.22186): 123.556 | Gi1 hCB1 response (hCB1 [2]; Log [Compound] (M) -4.63927): 104.286 | Gi1 hCB1 response (hCB1 [2]; Log [Compound] (M) -5.05788): 90.0738 | Gi1 hCB1 response (hCB1 [2]; Log [Compound] (M) -5.47381): 84.2546 | Gi1 hCB1 response (hCB1 [2]; Log [Compound] (M) -5.89285): 64.3799 | Gi1 hCB1 response (hCB1 [2]; Log [Compound] (M) -6.31878): 42.6475 | Gi1 hCB1 response (hCB1 [2]; Log [Compound] (M) -6.72585): 30.3601 | Gi1 hCB1 response (hCB1 [2]; Log [Compound] (M) -7.14267): 11.5597 | Gi1 hCB1 response (hCB1 [2]; Log [Compound] (M) -7.55284): 0.9285 | Gi1 hCB1 response (hCB1 [2]; Log [Compound] (M) -8): 10.9106 | Gi1 hCB1 response (hCB1 [2]; Log [Compound] (M) -8.22186): -8.695 | Gi1 hCB1 response (hCB1 [2]; Log [Compound] (M) -8.39794): 0.6152 | Gi1 hCB1 response (hCB1 [2]; Log [Compound] (M) -8.68787): -2.362 | Gi1 hCB1 response (hCB1 [2]; Log [Compound] (M) -9.61989): -10.5755 | Gi1 hCB1 response (hCB1 [2]; Log [Compound] (M) -10.0969): -9.255 | Gi1 hCB1 response (hCB1 [2]; Log [Compound] (M) -10.5529): -7.5988 | Gi1 hCB1 response (hCB1 [2]; Log [Compound] (M) -11.0177): -15.9247 | Gi1 hCB1 response (hCB1 [2]; Log [Compound] (M) -11.4949): -7.532 | Gi1 hCB1 response (hCB1 [2]; Log [Compound] (M) -11.9208): -15.2309 | Gi1 hCB1 response (hCB1 [2]; Log [Compound] (M) -12.3979): -21.4305 | Gi1 hCB1 response (hCB1 [2]; Log [Compound] (M) -12.8861): 1.8014 | Gi1 hCB1 response (hCB1 [2]; Log [Compound] (M) -13, individual replicate values): -0.8396 and -0.9068 | Gi1 hCB1 (hCB1 [2]; Log [Compound] (M) -4.22186, single replicate values, FigS6a): 75.9694
